Assay results published in patent US20070179161A1, “Pyrazolopyrimidine compounds and their use in medicine” (VERNALIS (CAMBRIDGE) LIMITED., priority 2003, published 2007).

Legend:
Format in all cases: biochemical
[1] = target: T1, PDK1 enzyme (Homo sapiens, UniProt O15530); experiment: PDK1 kinase inhibition assay (33P phosphorylation of synthetic peptide, filter plate); conditions: 0.01 mM ATP, 60 min at 30° C.; read-out: PDK1 IC50
T1 sequence (O15530 1-556): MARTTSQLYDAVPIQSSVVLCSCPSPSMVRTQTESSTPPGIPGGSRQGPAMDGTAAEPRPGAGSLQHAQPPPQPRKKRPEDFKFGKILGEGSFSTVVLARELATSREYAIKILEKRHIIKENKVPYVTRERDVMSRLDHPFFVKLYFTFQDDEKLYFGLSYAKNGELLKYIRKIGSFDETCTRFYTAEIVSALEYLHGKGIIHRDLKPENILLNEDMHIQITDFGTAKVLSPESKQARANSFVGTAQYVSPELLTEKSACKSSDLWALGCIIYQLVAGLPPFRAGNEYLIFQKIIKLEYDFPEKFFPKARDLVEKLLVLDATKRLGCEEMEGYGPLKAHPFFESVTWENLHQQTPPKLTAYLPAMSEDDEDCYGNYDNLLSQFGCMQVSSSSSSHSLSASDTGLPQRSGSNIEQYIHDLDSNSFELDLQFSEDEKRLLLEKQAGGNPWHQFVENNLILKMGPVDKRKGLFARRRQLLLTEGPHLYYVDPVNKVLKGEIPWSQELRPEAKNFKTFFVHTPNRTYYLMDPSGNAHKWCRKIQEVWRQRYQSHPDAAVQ
Procedure: (§1) The assay mixture containing the inhibitor and PDK1 enzyme was mixed together in a microtiter plate in a final volume of 50 μl and incubated for 60 min at 30° C. The assay mixture contained 0.01 mM unlabeled ATP, 0.01 μCi/μl ^33P-γ-ATP, 0.075 mM peptide, 0.1 mg/ml BSA, 7.5 mM magnesium acetate, 0.05M Tris.HCl, pH 7.5, 0.5% 2-mercaptoethanol. The reaction was stopped by adding 50 μl of 50 mM phosphoric acid. 90 μl of the mixture were transferred to a pre-wetted 96-well Multiscreen MAPHNOB filtration plate (Millipore) and filtered on a vacuum manifold. […] The filtration plate was dried for 10 min at 65° C., scintillant added and phosphorylated peptide quantified in a scintillation counter (Trilux, PerkinElmer)

[2] = target: T2, GST-Chk1 enzyme (Homo sapiens, UniProt O14757); experiment: Chk1 kinase inhibition assay (33P phosphorylation of Chktide, filter plate); conditions: 0.01 mM ATP, 11 nM GST-Chk1, 40 minutes at 30° C.; read-out: Chk1 IC50
T2 sequence (O14757 1-476): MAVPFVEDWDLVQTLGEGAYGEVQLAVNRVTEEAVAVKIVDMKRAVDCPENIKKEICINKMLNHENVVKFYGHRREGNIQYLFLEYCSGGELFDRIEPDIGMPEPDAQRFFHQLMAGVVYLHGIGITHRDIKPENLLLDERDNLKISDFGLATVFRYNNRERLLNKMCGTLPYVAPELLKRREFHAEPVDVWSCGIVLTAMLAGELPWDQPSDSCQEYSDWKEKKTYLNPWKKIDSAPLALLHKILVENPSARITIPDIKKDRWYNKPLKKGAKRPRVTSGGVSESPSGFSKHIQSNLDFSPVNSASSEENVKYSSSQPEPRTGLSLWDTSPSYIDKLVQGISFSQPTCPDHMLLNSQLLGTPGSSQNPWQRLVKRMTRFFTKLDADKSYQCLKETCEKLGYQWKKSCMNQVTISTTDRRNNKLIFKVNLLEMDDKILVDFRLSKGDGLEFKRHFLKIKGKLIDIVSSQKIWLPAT
Procedure: The assay mixture containing the inhibitor and Chk1 enzyme was mixed together in a microtiter plate in a final volume of 50 μl and incubated for 40 minutes at 30° C.
The reaction was stopped by adding 50 μl of 50 mM phosphoric acid. 90 μl of the mixture was transferred to a pre-wetted 96-well Multiscreen MAPHNOB filtration plate (Millipore) and filtered on a vacuum manifold. […] The filtration plate was dried for 10 min at 65° C., scintillant added and phosphorylated peptide quantified in a scintillation counter (Trilux, PerkinElmer)

[3] = target: CDK-2 enzyme, complexed with cyclin A (Homo sapiens, UniProt P24941); experiment: CDK2 enzyme inhibition assay (33P phosphorylation of peptide […], filter plate); conditions: CDK-2/cyclin A, 0.1 mM ATP, 40 min at 30° C.
Procedure: as §1, with “and CDK-2 enzyme, complexed with cyclin A (0.4 U/ml)” for “and PDK1 enzyme”, “for 40” for “for 60”, “contained 0.1” for “contained 0.01”, “^33P-γ-ATP, 0.03” for “^33P-γ-ATP, 0.075”, “acetate, 50 mM HEPES-NaOH,” for “acetate, 0.05M Tris.HCl,”, “pH 7.5.” for “pH 7.5, 0.5% 2-mercaptoethanol.”
HEPES is N-[2-Hydroxyethyl]piperazine-N′-[2-ethanesulfonic acid] BSA is bovine serum albumin.

Row | SMILES | IC50 [1] [µM] | IC50 [2] [µM] | IC50 [3] [µM]
1 | CC(C)c1cnn2c(Nc3ccc(S(=O)(=O)N(C)C)cc3)cc(N3CCC(C(=O)O)CC3)nc12 [Example 78] | > 200 | > 200 | 4.79
2 | NS(=O)(=O)c1ccc(Nc2cc(OC3CCCCC3)nc3ccnn23)cc1 [Example 22] | 70.3 | > 200 | 0.3
3 | O=S(=O)(Nc1nccs1)c1ccc(Nc2cc(OC3CCCCC3)nc3ccnn23)cc1 [Example 14] | 24.6 | > 200 | 0.59
4 | CCNc1cc(Nc2ccc(S(=O)(=O)N(C)C)cc2)n2ncc(C(C)C)c2n1 [Example 108] | > 200 | > 200 | 3.14
5 | COCCNS(=O)(=O)c1ccc(Nc2cc(Cl)nc3c(C(C)C)cnn23)cc1 [Example 36] | > 200 | > 200 | 0.715
6 | CC(C)c1cnn2c(Nc3ccc(S(=O)(=O)N(C)CCN(C)C)cc3)cc(N[C@H]3CC[C@H](N)CC3)nc12 [Example 99] | 6.91 | 0.953 | 0.128
7 | CN(C)S(=O)(=O)c1ccc(Nc2cc(Cl)nc3c(-c4ccsc4)cnn23)cc1 [Example 156] | 10 | > 200 | 24.9
8 | N[C@H]1CC[C@H](Nc2cc(Nc3ccc(Oc4ccccc4)cc3)n3ncc(Cl)c3n2)CC1 [Example 187] | 2 | 2 | 0.054
9 | CC(C)c1cnn2c(Nc3ccc(S(=O)(=O)N(C)C)cc3)cc(C(=O)NCCN)nc12 [Example 118] | > 200 | 36.8 | 6.76
10 | CC(C)c1cnn2c(Nc3ccc(S(=O)(=O)NCCN(C)C)cc3)cc(Cl)nc12 [Example 77] | 9.49 | > 200 | 0.039
11 | O=S(=O)(c1ccc(Nc2cc(Cl)nc3ccnn23)cc1)N1CCOCC1 [Example 9] | > 200 | > 200 | 0.99
12 | CN(C)S(=O)(=O)c1ccc(Nc2cc(N[C@H]3CC[C@H](N)CC3)nc3c(Br)cnn23)cc1 [Example 31, 3-bromo-5-(trans-4-aminocyclohexylamino)-7-(4-(N,N-dimethylsulphonamido)phenylamino)pyrazolo[1,5-a]pyrimidine] | 0.325 | 1.27 | 0.008
13 | O=S(=O)(c1ccc(Nc2ccnc3ccnn23)cc1)N1CCOCC1 [Example 16] | > 200 | > 200 | 3.35
14 | Cc1cccc(-c2cc(NCc3ccncc3)n3nccc3n2)c1 [Example 7] | > 200 | > 200 | 7.19
15 | CC(C)COc1cc(Nc2ccc(S(C)(=O)=O)cc2)n2ncc(C(C)C)c2n1 [Example 41] | > 200 | > 200 | 1.2
16 | CC(C)c1cnn2c(Nc3ccc(S(=O)(=O)N(C)C)cc3)cc(NCCCN3CCN(C)CC3)nc12 [Example 124] | > 200 | > 200 | 22.1
17 | Oc1ccc(-c2cc(Nc3cccc(Cl)c3)n3nccc3n2)cc1 [Example 5] | > 200 | > 200 | 3.96
18 | CC(C)c1cnn2c(Nc3ccc(S(C)(=O)=O)cc3)ccnc12 [Example 38] | > 200 | > 200 | 0.313
19 | CC(C)c1cnn2c(Nc3ccc(S(C)(=O)=O)nc3)cc(N[C@H]3CC[C@H](N)CC3)nc12 [Example 107] | 96.5 | 19.6 | 0.101

Row | SMILES | IC50 [1] [µM] | IC50 [2] [µM] | IC50 [3] [µM]
20 | CC(=O)N[C@H]1CC[C@H](Nc2cc(Nc3ccc(S(=O)(=O)N(C)C)cc3)n3ncc(C(C)C)c3n2)CC1 [Example 79] | > 200 | > 200 | 0.066
21 | CC(C)c1cnn2c(Nc3ccc(S(=O)(=O)N(C)C)cc3)cc(N(C)CCCN(C)C)nc12 [Example 74] | > 200 | 18.6 | 7.27
22 | CC(C)c1cnn2c(Nc3ccc(S(C)(=O)=O)cc3)cc(N(C)CCN(C)C)nc12 [Example 58] | > 200 | 51.7 | 1.94
23 | CC(C)c1cnn2c(Nc3ccc(S(C)(=O)=O)nc3)cc(Cl)nc12 [Example 84] | > 200 | > 200 | 0.298
24 | O=S(=O)(Nc1nccs1)c1ccc(Nc2cc(Cl)nc3ccnn23)cc1 [Example 11] | > 200 | > 200 | 1.31
25 | CC(C)c1cnn2c(Nc3ccc(S(=O)(=O)N(C)C)cc3)cc(NC3CCCC(N)C3)nc12 (stereo not drawn) [Example 113] | 3.12 | 2.2 | 2.05
26 | CC(C)c1cnn2c(Nc3ccc(S(=O)(=O)N(C)C)cc3)cc(N[C@H]3CC[C@H](NC(N)=O)CC3)nc12 [Example 141] | 9 | 13 | 0.142
27 | COCCN(C)S(=O)(=O)c1ccc(Nc2cc(Cl)nc3c(C(C)C)cnn23)cc1 [Example 96] | > 200 | > 200 | 0.124
28 | CCOC(=O)c1cc(Nc2ccc(S(=O)(=O)N(C)C)cc2)n2ncc(C(C)C)c2n1 [Example 112] | > 200 | > 200 | 0.274
29 | CC(C)c1cnn2c(Nc3ccc(S(=O)(=O)N(C)C)cc3)cc(N3CCCC(CO)C3)nc12 (stereo not drawn) [Example 49] | > 200 | > 200 | 0.387
30 | CC(C)COc1cc(Nc2ccc(S(=O)(=O)N(C)CCO)cc2)n2ncc(C(C)C)c2n1 [Example 42] | > 200 | > 200 | 0.17
31 | CS(=O)(=O)c1ccc(Nc2cc(N[C@H]3CC[C@@H](N)CC3)nc3c(Br)cnn23)cc1 [Example 164] | 4.7 | 0.25 | 0.222
32 | Cc1cccc(-c2cc(Nc3ccc(S(=O)(=O)Nc4ccccn4)cc3)n3nccc3n2)c1 [Example 18] | > 200 | 52.4 | 0.96
33 | CC(C)c1cnn2c(Nc3ccc(S(=O)(=O)N(C)C)cc3)cc(OC3CCN(C)C3)nc12 (stereo not drawn) [Example 70] | > 200 | 79.9 | 0.32
34 | CN(C)S(=O)(=O)c1cccc(Nc2cc(Cl)nc3c(Br)cnn23)c1 [Example 93] | > 200 | > 200 | 0.572
35 | CC(C)c1cnn2c(Nc3ccc(S(=O)(=O)N(C)C)cc3)cc(N3CCC(CN)CC3)nc12 [Example 95] | 64.2 | 24.9 | 1.86
36 | NS(=O)(=O)c1ccc(Nc2ccnc3ccnn23)cc1 [Example 20] | > 200 | > 200 | 1.76
37 | CNS(=O)(=O)c1ccc(Nc2cc(Cl)nc3c(C(C)C)cnn23)cc1 [Example 46] | 109 | > 200 | 0.076
38 | CCN(CC)c1cc(Nc2ccc(S(=O)(=O)N(C)C)cc2)n2ncc(C(C)C)c2n1 [Example 71] | > 200 | > 200 | 0.655
